US6608078B2, “Antibacterial chiral 8-(substituted piperidino)-benzo [i,j] quinolizines, processes, compositions and methods of treatment” (Wockhardt Limited, priority 2000, dated 2003)
Converted amounts (≈) assume the structure as drawn.

What was measured:
Type in all cases: cell-based
[1] = system: E. coli; assay: In-vitro antimicrobial test (MIC, NCCLS protocol); conditions: standard NCCLS protocol
Description: (§1) The activity of the compounds of the invention in-vitro can be illustrated as follows:
(§2) The test method was in accordance with the standard NCCLS protocol.

[2] = system: MRSA; assay: In-vitro antimicrobial test (MIC, NCCLS protocol); conditions: standard NCCLS protocol
Description: as §1, §2

[3] = system: P. aeruginosa; assay: In-vitro antimicrobial test (MIC, NCCLS protocol); conditions: standard NCCLS protocol
Description: as §1, §2

[4] = system: S. pneumoniae; assay: In-vitro antimicrobial test (MIC, NCCLS protocol); conditions: standard NCCLS protocol
Description: as §1, §2

[5] = system: VRE; assay: In-vitro antimicrobial test (MIC, NCCLS protocol); conditions: standard NCCLS protocol
Description: as §1, §2

[6] = system: S. pneumoniae ATCC 6303; assay: % Killing of Streptococci at 4 MIC, 8 hrs
Description: (§3) Comparison of a typical compound of the invention vs S-(−)-9-fluoro-8-(4′-hydroxypiperidin-1-yl)-5-methyl-6,7-dihydro-1-oxo-1H-5H-benzo[i,j]quinolizine-2-carboxylic acid in terms of % Killing of Streptococci
(§4) As against this, a typical compound of the invention, which has an improved bactericidal power againt streptococci, consistently brings about killing of 99% of streptococcal population.

[7] = system: S. pyogenes ATCC 25147; assay: % Killing of Streptococci at 4 MIC, 8 hrs
Description: as §3, §4

[8] = system: S. salivarius ATCC 13419; assay: % Killing of Streptococci at 4 MIC, 8 hrs
Description: as §3, §4

[9] = system: S. sanguis ATCC 10556; assay: % Killing of Streptococci at 4 MIC, 8 hrs
Description: as §3, §4

[10] = system: streptococcal population; assay: % Killing of Streptococci, summary over strains; conditions: exposed to 4×MIC concentrations for 8 hours; depending upon the streptococcal strain
Description: as §3, §4

| Compound | MIC [1] [µg/mL] | MIC [2] [µg/mL] | MIC [3] [µg/mL] | MIC [4] [µg/mL] | MIC [5] [µg/mL] | 4 MIC-% Kill at 8 hrs. [6] [%] | 4 MIC-% Kill at 8 hrs. [7] [%] | 4 MIC-% Kill at 8 hrs. [8] [%] | 4 MIC-% Kill at 8 hrs. [9] [%] | killing of streptococcal population [10] [%] |
| --- | --- | --- | --- | --- | --- | --- | --- | --- | --- | --- |
| CC1CN(c2c(F)cc3c(=O)c(C(=O)O)cn4c3c2CC[C@@H]4C)CCC1O (mixture of isomers) [Compound A, S-(−)-9-fluoro-6,7-dihydro-8-{trans-4-(RS)-hydroxy-3-(RS)-methylpiperidin-1-yl}-5-methyl-1-oxo-1H,5H-benzo[i,j]quinolizine-2-carboxylic acid] | 0.2 (≈ 0.534 µM) | 0.4 (≈ 1.07 µM) | 3.12 (≈ 8.33 µM) | 0.2 (≈ 0.534 µM) | 6.25 (≈ 16.7 µM) | – | – | – | – | – |
| CC1CN(c2c(F)cc3c(=O)c(C(=O)O)cn4c3c2CC[C@@H]4C)CCC1O (mixture of isomers) [Compound B] | 0.2 (≈ 0.534 µM) | 0.8 (≈ 2.14 µM) | 6.25 (≈ 16.7 µM) | 0.2 (≈ 0.534 µM) | 6.25 (≈ 16.7 µM) | – | – | – | – | – |
| CC1CCc2c(N3CCC(O)CC3)c(F)cc3c(=O)c(C(=O)O)cn1c23 (racemic) [Ref. 1, RS(±)-9-fluoro-8-(4′-hydroxypiperidin-1-yl)-5-methyl-6,7-dihydro-1-oxo-1H-5H-benzo[i,j]quinolizine-2-carboxylic acid, reference compound] | 0.4 (≈ 1.11 µM) | 1.56 (≈ 4.33 µM) | 6.25 (≈ 17.3 µM) | 0.4 (≈ 1.11 µM) | 12.5 (≈ 34.7 µM) | – | – | – | – | – |
| C[C@H]1CN(c2c(F)cc3c(=O)c(C(=O)O)cn4c3c2CC[C@@H]4C)CC[C@H]1O (relative stereo) [Compound C, S-(−)-9-fluoro-6,7-dihydro-8-{cis-(−)-4-R-hydroxy-3-S-methylpiperidin-1-yl}-5-methyl-1-oxo-1H,5H-benzo[i,j]quinolizine-2-carboxylic acid] | 0.1 (≈ 0.267 µM) | 0.8 (≈ 2.14 µM) | 6.25 (≈ 16.7 µM) | 0.1 (≈ 0.267 µM) | 6.25 (≈ 16.7 µM) | – | – | – | – | – |
| C[C@@H]1CN(c2c(F)cc3c(=O)c(C(=O)O)cn4c3c2CC[C@@H]4C)CC[C@@H]1O (relative stereo) [Compound D, S-(−)-9-fluoro-6,7-dihydro-8-{cis-(+)-4-S-hydroxy-3-R-methylpiperidin-1-yl}-5-methyl-1-oxo-1H,5H-benzo[i,j]quinolizine-2-carboxylic acid] | 0.2 (≈ 0.534 µM) | 0.8 (≈ 2.14 µM) | 6.25 (≈ 16.7 µM) | 0.8 (≈ 2.14 µM) | 6.25 (≈ 16.7 µM) | – | – | – | – | – |
| CCC1CN(c2c(F)cc3c(=O)c(C(=O)O)cn4c3c2CC[C@@H]4C)CCC1O (stereo partly drawn) [Compound E, S-(−)-9-fluoro-6,7-dihydro-8-(3-ethyl-4-hydroxypiperidin-1-yl)-5-methyl-1-oxo-1H,5H-benzo[i,j]quinolizine-2-carboxylic acid] | 0.8 (≈ 2.06 µM) | 1.56 (≈ 4.02 µM) | >12.5 | 0.2 (≈ 0.515 µM) | 12.5 (≈ 32.2 µM) | – | – | – | – | – |
| C[C@H]1CCc2c(N3CCC(O)CC3)c(F)cc3c(=O)c(C(=O)O)cn1c23 [Ref. 2, S-(−)-9-fluoro-8-(4′-hydroxypiperidin-1-yl)-5-methyl-6,7-dihydro-1-oxo-1H-5H-benzo[i,j]quinolizine-2-carboxylic acid, reference compound] | 0.2 (≈ 0.555 µM) | 0.8 (≈ 2.22 µM) | 3.12 (≈ 8.66 µM) | 0.2 (≈ 0.555 µM) | 6.25 (≈ 17.3 µM) | 50 | 45.4 | 0 | 40 | ≤ 50 |
| CC1CN(c2c(F)cc3c(=O)c(C(=O)O)cn4c3c2CC[C@@H]4C)CCC1O (stereo partly drawn) [Typical compound of the invention, S-(-)-9-fluoro-6,7-dihydro-8-(4-hydroxy-3-methylpiperidin-1-yl)-5-methyl-1-oxo-1H,5H-benzo[i,j]quinolizine-2-carboxylic acid] | – | – | – | – | – | 99.8 | 98.4 | 99.7 | 98.6 | 99 |
